Data published in patent US4021557A, “11-Aminoalkyl-pyridobenzodiazepinones and salts thereof” (Boehringer Ingelheim GmbH, priority 1974, dated 1977).

Key:
[1] = system: acetylcholine-induced bronchospasm; assay: Antagonism to acetylcholine-provoked bronchospasm in anesthetized guinea pigs (Konzett and Rossler), i.v.; antiasthmatic / bronchospasmolytic activity; type: in vivo; details: guinea pig; for ED50: Cavia porcellus, iv, 20γ acetylcholine per kg i.v., graphic extrapolation, read-out: Bronchospasmolytic ED50 against acetylcholine-induced bronchospasm
Method: The antiasthmatic activity was tested as the antagonism to bronchospasm provoked by intravenous administration of 20γ of acetylcholine per kg body weight in anesthetized guinea pigs (according to method of Konzett and Rossler). From the average percentage decrease of the bronchospasm produced by administering various doses of the compounds of the […] invention an ED50 was determined by graphic extrapolation. The compounds were administered intravenously.

[2] = Acute toxicity after i.v. administration in NMRI-mice (Litchfield and Wilcoxon); details: mouse, in vivo, iv, both sexes, deaths within 14 days, read-out: LD50 in the mouse after i.v. application
Method: The acute toxicity was determined with NMRI-mice of both sexes (body weight 20 gm) after intravenous administration of the compound. 0.1 ml of a 0.9% sodium chloride solution per 10gm of animal was used as the vehicle.

heart rate = assay: Effect on heart rate of the anesthetized cat after intravenous administration; type: in vivo; set-up: key to type of the reaction (heart rate): --: decrease in heart rate; details: i.v.; for ED10 (dose leading to a 10% alteration of the heart rate) / ED25 (dose leading to a 25% alteration of the heart rate): graphic extrapolation; for type of the reaction (heart rate): tested dosage range 250 - 4,000 γ/kg (A 12.5 - 16,000; W 125 - 4,000)
Method: The effect on the heart rate was tested on cats of both sexes (body weight between 2.3 and 3.5 kg) under chloralose-urethane anesthesia. The heart rate was continuously registered by means of a Grass-tachograph 7P4, controlled by the R-wave of the electrocardiogram. The test compound was injected through a catheter introduced into the vena femoralis.

quantity of secretion = assay: Expectorant (secretolytic) activity in anesthetized guinea pigs (Perry et al, modified by Engelhorn et al), oral; type: in vivo; details: guinea pig, over 2 hours
Method: The expectorant activity was ascertained by the method of Perry et al, J. Pharmcol. exp. Therap. 73, 65 (1941), as modified by Engelhorn et al, Arzneim. Forsch. 21, 1045 (1971), on male guinea pigs (body weight from 450 to 550 gm), which has been anesthetized by intraperitoneal injection of a 25% urethane solution (1.0 gm/kg). The test compound was administered orally at the indicated dosage levels, each in 2 ml of distilled water, by means of an esophageal tube. 5 tests per dose. The increase in secretion was calculated from the quantity of fluid secreted over a period of 2 hours after administration of the test compound, as compared to the quantity secreted without administration of the test compound.

| SMILES | ED50 [1] [mg/kg] | Average duration of effective action in the ED50 range [1] [min] | LD50 at 336 h [2] [mg/kg] | ED10 (dose leading to a 10% alteration of the heart rate) (heart rate) | ED25 (dose leading to a 25% alteration of the heart rate) (heart rate) | type of the reaction (heart rate) (heart rate) | percent change in quantity of secretion (increase) (quantity of secretion; dose 0.5 γ/kg) [%] | percent change in quantity of secretion (increase) (quantity of secretion; dose 5 γ/kg) [%] |
| --- | --- | --- | --- | --- | --- | --- | --- | --- |
| CCN(CC)CCCN1c2ccccc2N(C)C(=O)c2cccnc21.Cl [A, 11-(3'-diethylamino-n-propyl)-6,11-dihydro-6-methyl-5H-pyrido[2,3-b][1,5]benzodiazepin-5-one hydrochloride] | 0.031 | > 130 | 62.3 | 2,100 γ/kg | > 16,000 γ/kg | -- | 80 | 114 |
| CN(C)CCN1c2ccccc2N(C)C(=O)c2cccnc21.Cl [B, 6,11-dihydro-11-(2'-dimethylamino-ethyl)-6-methyl-5H-pyrido[2,3-b][1,5]benzodiazepin-5-one hydrochloride] | 0.148 | > 110 | 25.8 |  |  |  |  |  |
| CN(C)CCCN1c2ccccc2N(C)C(=O)c2cccnc21.Cl [C, 6,11-dihydro-11-(3'-dimethylamino-n-propyl)-6-methyl-5H-pyrido[2,3-b][1,5]benzodiazepin-5-one hydrochloride] | 0.081 | > 60 | 30.7 | > 4,000 γ/kg |  | -- |  |  |
| CNCCCN1c2ccccc2N(C)C(=O)c2cccnc21.Cl [D, 6,11-dihydro-6-methyl-11-(3'-methylamino-n-propyl)-5H-pyrido[2,3-b][1,5]benzodiazepin-5-one hydrochloride] | 0.155 | 45 | 43.2 |  |  |  |  |  |
| CCNCCCN1c2ccccc2N(C)C(=O)c2cccnc21.Cl [E, 11-(3'-ethylamino-n-propyl)-6,11-dihydro-6-methyl-5H-pyrido[2,3-b][1,5]benzodiazepin-5-one hydrochloride] | 0.068 | > 90 | 56.1 | 1,050 γ/kg | > 4,000 γ/kg | -- |  |  |
| CC(C)NCCCN1c2ccccc2N(C)C(=O)c2cccnc21.Cl [F, 6,11-dihydro-11-(3'-isopropylamino-n-propyl)-6-methyl-5H-pyrido[2,3-b][1,5]benzodiazepin-5one hydrochloride] | 0.172 | > 110 | 43.5 |  |  |  |  |  |
| CCN(CC)CCN1c2ccccc2N(C)C(=O)c2cccnc21.Cl [G, 11-(2'-diethylamino-ethyl)-6,11-dihydro-6-methyl-5H-pyrido[2,3-b][1,5]benzodiazepin-5-one hydrochloride] | 0.044 | 50 | 27.1 |  |  |  |  |  |
| CCCN(CCC)CCCN1c2ccccc2N(C)C(=O)c2cccnc21.Cl [H, 6,11-dihydro-11-(3'-di-n-propylamino-n-propyl)-6-methyl-5H-pyrido[2,3-b][1,5]benzodiazepin-5-one hydrochloride] | 0.095 | > 70 | 21.7 |  |  |  |  |  |
| CC(C)N(CCN1c2ccccc2N(C)C(=O)c2cccnc21)C(C)C.Cl [I, 6,11-dihydro-11-(2'-diisopropylamino-ethyl)-6-methyl-5H-pyrido[2,3-b][1,5]benzodiazepin-5-one hydrochloride] | 0.018 | 40 | 30.3 | 1,300 γ/kg | > 4,000 γ/kg | -- |  |  |
| CN1C(=O)c2cccnc2N(CCCN2CCCC2)c2ccccc21.Cl [L, 6,11-dihydro-6-methyl-11-(3'-pyrrolidino-n-propyl)-5H-pyrido[2,3-b][1,5]benzodiazepin-5one hydrochloride] | 0.043 | 120 | 22.7 | 1,900 γ/kg | 3,950 γ/kg | -- |  |  |
| CN1C(=O)c2cccnc2N(CCCN2CCCCC2)c2ccccc21.Cl [M, 6,11-dihydro-6-methyl-11-(3'-piperidino-n-propyl)-5H-pyrido[2,3-b][1,5]benzodiazepin-5-one hydrochloride] | 0.063 | > 60 | 10.6 | 1,400 γ/kg | > 4,000 γ/kg | -- |  |  |
| CN1C(=O)c2cccnc2N(CCCN2CCCCCC2)c2ccccc21.Cl [N, 6,11-dihydro-11-(3'-hexamethyleneimino-n-propyl)-6-methyl-5H-pyrido[2,3-b][1,5]benzodiazepin-5-one hydrochloride] | 0.064 | > 50 | 12.7 |  |  |  |  |  |
| CN1C(=O)c2cccnc2N(CCN2CCCC2)c2ccccc21.Cl [O, 6,11-dihydro-6-methyl-11-(2'-pyrrolidino-ethyl)-5H-pyrido[2,3-b][1,5]benzodiazepin-5-one hydrochloride] | 0.097 | > 30 | 11.4 | > 4,000 γ/kg |  | -- |  |  |
| CCN(CC)CCN1c2ccccc2C(=O)N(C)c2cccnc21.Cl [P, 11-(2'-diethylamino-ethyl)-5,11-dihydro-5-methyl-6H-pyrido[2,3-b][1,4]benzodiazepin-6-one hydrochloride] | 0.21 | 110 |  |  |  |  |  |  |
| CC(C)N(CCN1c2ccccc2C(=O)N(C)c2cccnc21)C(C)C.Cl [Q, 5,11-dihydro-11-(2'-diisopropylamino-ethyl)-5-methyl-6H-pyrido[2,3-b][1,4]benzodiazepin-6-one hydrochloride] | 0.053 | > 50 | 27 |  |  |  |  |  |
| CN(C)CCCN1c2ccccc2C(=O)N(C)c2cccnc21 [R, 5,11-dihydro-11-(3'-dimethylamino-n-propyl)-5-methyl-6H-pyrido[2,3-b][1,4]benzodiazepin-6-one] | 0.19 | > 50 |  |  |  |  |  |  |
| CCN(CC)CCCN1c2ccccc2C(=O)N(C)c2cccnc21.Cl [S, 5,11-dihydro-11-(3'-diethylamino-n-propyl)-5-methyl-6H-pyrido[2,3-b][1,4]benzodiazepin-6-one hydrochloride] | 0.123 | > 110 |  |  |  |  |  |  |
| CC(C)N(CCCN1c2ccccc2C(=O)N(C)c2cccnc21)C(C)C.Cl [T, 5,11-dihydro-11-(3'-diisopropylamino-n-propyl)-5-methyl-6H-pyrido[2,3-b][1,4]benzodiazepin-6-one hydrochloride] | 0.0165 | 50 | 22.2 | 1,400 γ/kg | 3,600 γ/kg | -- |  |  |
| CN1C(=O)c2ccccc2N(CCCN2CCCC2)c2ncccc21.Cl [U, 5,11-dihydro-5-methyl-11-(3-pyrrolidino-n-propyl)-6H-pyrido[2,3-b][1,4]benzodiazepin-6-one hydrochloride] | 0.105 | > 50 | 22.9 | 2,300 γ/kg | > 4,000 γ/kg | -- |  |  |
| CN1C(=O)c2ccccc2N(CCCN2CCCCC2)c2ncccc21.Cl [V, 5,11-dihydro-5-methyl-11-(3'-piperidino-n-propyl)-6H-pyrido[2,3-b][1,4]benzodiazepin-6-one hydrochloride] | 0.18 | > 110 | 13.4 | 1,100 γ/kg | > 4,000 γ/kg | -- |  |  |
| CN1C(=O)c2ccccc2N(CCCN2CCCCCC2)c2ncccc21.Cl [W, 5,11-dihydro-11-(3'-hexamethyleneimino-n-propyl)-5-methyl-6H-pyrido[2,3-b][1,4]benzodiazepin-6-one hydrochloride] | 0.215 | > 40 | 13.4 | 1,200 γ/kg | > 4,000 γ/kg | -- |  |  |
